Measured values: article PMC9481151, “Discovery of new symmetrical and asymmetrical nitrile-containing 1,4-dihydropyridine derivatives as dual kinases and P-glycoprotein inhibitors: synthesis, in vitro assays, and in silico studies” (Journal of Enzyme Inhibition and Medicinal Chemistry, 2022)

How the values were obtained:
Staphylococcus aureus = assay: Agar well diffusion method; details: relative to ciprofloxacin
SN12C = assay: NCI single dose (10 µM) SRB screen; type: cell-based, human; details: renal cancer, 48 h
CAKI-1 = assay: NCI single dose (10 µM) SRB screen; type: cell-based, human; details: renal cancer, 48 h
OVCAR-5 = assay: NCI single dose (10 µM) SRB screen; type: cell-based, human; details: ovarian cancer, 48 h
NCI-H460 = assay: NCI single dose (10 µM) SRB screen; type: cell-based, human; details: non-small cell lung cancer, 48 h
SK-MEL-2 = assay: NCI single dose (10 µM) SRB screen; type: cell-based, human; details: melanoma, 48 h
COLO 205 = assay: NCI single dose (10 µM) SRB screen; type: cell-based, human; details: colon cancer, 48 h
NCI-H226 = assay: NCI single dose (10 µM) SRB screen; type: cell-based, human; details: non-small cell lung cancer, 48 h
KM12 = assay: NCI single dose (10 µM) SRB screen; type: cell-based, human; details: colon cancer, 48 h
SK-OV-3 = assay: NCI single dose (10 µM) SRB screen; type: cell-based, human; details: ovarian cancer, 48 h
HS578T = assay: NCI single dose (10 µM) SRB screen; type: cell-based, human; details: breast cancer, 48 h
Candida albicans = assay: Agar well diffusion method; details: relative to clotrimazole
NCI-H522 = assay: NCI single dose (10 µM) SRB screen; type: cell-based, human; details: non-small cell lung cancer, 48 h
SK-MEL-28 = assay: NCI single dose (10 µM) SRB screen; type: cell-based, human; details: melanoma, 48 h
CCRF-CEM = assay: NCI single dose (10 µM) SRB screen; type: cell-based, human; details: leukaemia, 48 h
HCT-116 = assay: NCI single dose (10 µM) SRB screen; type: cell-based, human; details: colon cancer, 48 h
UO-31 = assay: NCI single dose (10 µM) SRB screen; type: cell-based, human; details: renal cancer, 48 h
HCC-2998 = assay: NCI single dose (10 µM) SRB screen; type: cell-based, human; details: colon cancer, 48 h
Aspergillus flavus = assay: Agar well diffusion method; details: relative to clotrimazole
ACHN = assay: NCI single dose (10 µM) SRB screen; type: cell-based, human; details: renal cancer, 48 h
IGROV1 = assay: NCI single dose (10 µM) SRB screen; type: cell-based, human; details: ovarian cancer, 48 h
NCI-H322M = assay: NCI single dose (10 µM) SRB screen; type: cell-based; details: non-small cell lung cancer, 48 h
SNB-19 = assay: NCI single dose (10 µM) SRB screen; type: cell-based, human; details: CNS cancer, 48 h
MCF7 = assay: NCI single dose (10 µM) SRB screen; type: cell-based, human; details: breast cancer, 48 h
MDA-MB-468 = assay: NCI single dose (10 µM) SRB screen; type: cell-based, human; details: breast cancer, 48 h
TK-10 = assay: NCI single dose (10 µM) SRB screen; type: cell-based, human; details: renal cancer, 48 h
Pseudomonas aeruginosa = assay: Agar well diffusion method; details: relative to ciprofloxacin
Escherichia coli = assay: Agar well diffusion method; details: relative to ciprofloxacin
UACC-257 = assay: NCI single dose (10 µM) SRB screen; type: cell-based, human; details: melanoma, 48 h
Bacillus subtilis = assay: Agar well diffusion method; details: relative to ciprofloxacin
NCI-H23 = assay: NCI single dose (10 µM) SRB screen; type: cell-based, human; details: non-small cell lung cancer, 48 h
HOP-92 = assay: NCI single dose (10 µM) SRB screen; type: cell-based, human; details: non-small cell lung cancer, 48 h
BT-549 = assay: NCI single dose (10 µM) SRB screen; type: cell-based, human; details: breast cancer, 48 h
SNB-75 = assay: NCI single dose (10 µM) SRB screen; type: cell-based, human; details: CNS cancer, 48 h
786-0 = assay: NCI single dose (10 µM) SRB screen; type: cell-based, human; details: renal cancer, 48 h
OVCAR-4 = assay: NCI single dose (10 µM) SRB screen; type: cell-based, human; details: ovarian cancer, 48 h
OVCAR-3 = assay: NCI single dose (10 µM) SRB screen; type: cell-based, human; details: ovarian cancer, 48 h
UACC-62 = assay: NCI single dose (10 µM) SRB screen; type: cell-based, human; details: melanoma, 48 h
HCT-15 = assay: NCI single dose (10 µM) SRB screen; type: cell-based, human; details: colon cancer, 48 h
RXF 393 = assay: NCI single dose (10 µM) SRB screen; type: cell-based, human; details: renal cancer, 48 h
RPMI-8226 = assay: NCI single dose (10 µM) SRB screen; type: cell-based, human; details: leukaemia, 48 h
T-47D = assay: NCI single dose (10 µM) SRB screen; type: cell-based, human; details: breast cancer, 48 h
NCI 60 cancer cell lines = assay: NCI single dose (10 µM) SRB screen, mean over panel; type: cell-based, human; details: mean over 60 cell lines, 48 h
U251 = assay: NCI single dose (10 µM) SRB screen; type: cell-based, human; details: CNS cancer, 48 h
HL-60(TB) = assay: NCI single dose (10 µM) SRB screen; type: cell-based, human; details: leukaemia, 48 h
M14 = assay: NCI single dose (10 µM) SRB screen; type: cell-based, human; details: melanoma, 48 h
K-562 = assay: NCI single dose (10 µM) SRB screen; type: cell-based, human; details: leukaemia, 48 h
SR = assay: NCI single dose (10 µM) SRB screen; type: cell-based, human; details: leukaemia, 48 h
SF-295 = assay: NCI single dose (10 µM) SRB screen; type: cell-based, human; details: CNS cancer, 48 h
MALME-3M = assay: NCI single dose (10 µM) SRB screen; type: cell-based, human; details: melanoma, 48 h
PC-3 = assay: NCI single dose (10 µM) SRB screen; type: cell-based, human; details: prostate cancer, 48 h

CCOC(=O)C1=C(C)NC(C)=C(C(=O)OCc2ccccc2)C1c1cccc(C#N)c1 (racemic) [Compound 2l, (±)-3- Benzyl 5-ethyl 4-(3-cyanophenyl)-2,6-dimethyl-1,4-dihydropyridine-3,5-dicarboxylate]
% activity index, S. aureus (Staphylococcus aureus): – (Values below 25 are of limited value and not shown as they refer either to inactive or non-diffusing compounds) | GI% SN12C (SN12C): 63% | GI% CAKI-1 (CAKI-1): 67% | GI% OVCAR-5 (OVCAR-5): 38% | GI% NCI-H460 (NCI-H460): 77% | GI% SK-MEL-2 (SK-MEL-2): 75% | GI% COLO 205 (COLO 205): 65% | GI% NCI-H226 (NCI-H226): 41% | GI% KM12 (KM12): 74% | GI% SK-OV-3 (SK-OV-3): 24% | GI% HS578T (HS578T): 59% | % activity index, C. albicans (Candida albicans): – (Values below 25 are of limited value and not shown as they refer either to inactive or non-diffusing compounds) | GI% NCI-H522 (NCI-H522): 90% | GI% SK-MEL-28 (SK-MEL-28): 48% | GI% CCRF-CEM (CCRF-CEM): 74% | GI% HCT-116 (HCT-116): 86% | GI% UO-31 (UO-31): 56% | GI% HCC-2998 (HCC-2998): 29% | % activity index, A. flavus (Aspergillus flavus): – (Values below 25 are of limited value and not shown as they refer either to inactive or non-diffusing compounds) | GI% ACHN (ACHN): 52% | GI% IGROV1 (IGROV1): 57% | GI% NCI-H322M (NCI-H322M): 30% | GI% SNB-19 (SNB-19): 58% | GI% MCF7 (MCF7): 78% | GI% MDA-MB-468 (MDA-MB-468): 84% | GI% TK-10 (TK-10): 16% | % activity index, P. aeruginosa (Pseudomonas aeruginosa): – (Values below 25 are of limited value and not shown as they refer either to inactive or non-diffusing compounds) | % activity index, E. coli (Escherichia coli): – (Values below 25 are of limited value and not shown as they refer either to inactive or non-diffusing compounds) | GI% UACC-257 (UACC-257): 44% | % activity index, B. subtilis (Bacillus subtilis): – (Values below 25 are of limited value and not shown as they refer either to inactive or non-diffusing compounds) | GI% NCI-H23 (NCI-H23): 37% | GI% HOP-92 (HOP-92): 49% | GI% BT-549 (BT-549): 68% | GI% SNB-75 (SNB-75): 104% | GI% 786-0 (786-0): 63% | GI% OVCAR-4 (OVCAR-4): 28% | GI% OVCAR-3 (OVCAR-3): 76% | GI% UACC-62 (UACC-62): 66% | GI% HCT-15 (HCT-15): 77% | GI% RXF 393 (RXF 393): 55% | GI% RPMI-8226 (RPMI-8226): 67% | GI% T-47D (T-47D): 72% | Mean GI% (NCI 60 cancer cell lines): 64% | GI% U251 (U251): 58% | GI% HL-60(TB) (HL-60(TB)): 83% | GI% M14 (M14): 85% | GI% K-562 (K-562): 83% | GI% SR (SR): 78% | GI% SF-295 (SF-295): 84% | GI% MALME-3M (MALME-3M): 62% | GI% PC-3 (PC-3): 66%
